Measured values taken from patent US20220289698A1, “INHIBITORS OF HUMAN ATGL” (Karl-Franzens-Universität Graz, priority 2019, published 2022).
Read-outs that look alike come from different tables or passages of the source.

Experiments:
[1] = target: T1, human ATGL (Homo sapiens, UniProt Q96AD5); experiment: TG hydrolase activity, Expi cell lysates expressing human ATGL + CGI-58, radiolabelled triolein; type: biochemical
T1 construct: made in house; host or cells: Expi cells (lysate, not purified)
T1 sequence (Q96AD5 1-504): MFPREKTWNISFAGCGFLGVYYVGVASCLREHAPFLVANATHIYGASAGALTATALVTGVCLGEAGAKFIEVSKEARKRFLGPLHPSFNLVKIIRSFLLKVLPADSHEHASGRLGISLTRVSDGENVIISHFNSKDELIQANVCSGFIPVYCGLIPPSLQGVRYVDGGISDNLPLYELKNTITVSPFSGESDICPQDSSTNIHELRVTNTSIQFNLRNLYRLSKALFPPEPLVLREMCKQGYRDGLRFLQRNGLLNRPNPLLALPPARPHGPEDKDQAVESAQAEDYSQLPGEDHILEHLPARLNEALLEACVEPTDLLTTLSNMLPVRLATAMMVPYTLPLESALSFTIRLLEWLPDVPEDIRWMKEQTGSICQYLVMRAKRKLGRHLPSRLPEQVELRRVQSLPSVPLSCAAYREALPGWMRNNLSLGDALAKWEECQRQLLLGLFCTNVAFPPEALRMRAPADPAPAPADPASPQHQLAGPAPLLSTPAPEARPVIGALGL
How it was run: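 Lysates of Expi cells expressing ATGL, supplemented with purified CGI-58 and inhibitor in DMSO, incubated 1 h at 37 °C with emulsified radiolabelled triolein (330 μM) in potassium phosphate pH 7.0 with 5% FA-free BSA. Released FA counted by liquid scintillation after phase extraction; IC50 versus DMSO control, duplicates.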

[2] = target: T2, murine ATGL (Mus musculus, UniProt Q8BJ56); experiment: TG hydrolase activity, Expi lysates expressing mouse ATGL + CGI-58, radiolabelled triolein; type: biochemical
T2 construct: made in house; host or cells: Expi cells (lysate)
T2 sequence (Q8BJ56 1-486): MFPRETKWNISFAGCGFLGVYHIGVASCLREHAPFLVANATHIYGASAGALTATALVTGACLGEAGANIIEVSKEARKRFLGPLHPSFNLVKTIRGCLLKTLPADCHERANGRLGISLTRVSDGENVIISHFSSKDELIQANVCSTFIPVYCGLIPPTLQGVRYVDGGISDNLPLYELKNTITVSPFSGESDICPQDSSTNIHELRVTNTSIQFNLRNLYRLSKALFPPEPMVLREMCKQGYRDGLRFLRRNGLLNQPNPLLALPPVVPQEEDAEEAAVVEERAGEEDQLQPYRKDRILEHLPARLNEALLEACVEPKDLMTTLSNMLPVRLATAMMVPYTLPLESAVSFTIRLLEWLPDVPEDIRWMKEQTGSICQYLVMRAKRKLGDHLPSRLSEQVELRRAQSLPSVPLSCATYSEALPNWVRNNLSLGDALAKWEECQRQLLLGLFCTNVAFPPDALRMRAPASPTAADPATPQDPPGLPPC
How it was run: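 Lysates of Expi cells overexpressing mouse ATGL, with added recombinant CGI-58, were incubated with inhibitor at 50 μM. Substrate was emulsified radiolabelled triolein with PC/PI in 100 mM potassium phosphate pH 7.0 and 5% FA-free BSA, 1 h at 37° C. Released FA were extracted and counted by scintillation; triplicates, DMSO control.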

[3] = test system: differentiated SGBS adipocytes; experiment: Isoproterenol-stimulated lipolysis in differentiated SGBS adipocytes; type: cell-based; details: Homo sapiens, 2 h pretreatment, 1 μM isoproterenol 1 h
Procedure: Human differentiated SGBS adipocytes were pretreated with DMSO or ATGL inhibitors for 2 h. Subsequently, lipolysis was stimulated with 1 μM Isoproterenol for 1 h and fatty acid release was determined from media via NEFA Reagent (Wako Diagnostics). Samples were measured in triplicates.
Human differentiated SGBS adipocytes were pretreated with DMSO or ATGL inhibitors for 2 h. Subsequently, lipolysis was stimulated with 1 μM Isoproterenol for 1 h and glycerol release was determined from media via Free glycerol reagent (Sigma Aldrich). Samples were measured in triplicates.

[4] = target: T3, hPNPLA9 (Homo sapiens, UniProt O60733); experiment: hPNPLA9 off-target inhibition; type: biochemical; details: read-out: hPNPLA9 off-target inhibition [% inhibition at 100 μM]
T3 construct: made in house; host or cells: Expi cells (lysate)
T3 sequence (O60733 1-806): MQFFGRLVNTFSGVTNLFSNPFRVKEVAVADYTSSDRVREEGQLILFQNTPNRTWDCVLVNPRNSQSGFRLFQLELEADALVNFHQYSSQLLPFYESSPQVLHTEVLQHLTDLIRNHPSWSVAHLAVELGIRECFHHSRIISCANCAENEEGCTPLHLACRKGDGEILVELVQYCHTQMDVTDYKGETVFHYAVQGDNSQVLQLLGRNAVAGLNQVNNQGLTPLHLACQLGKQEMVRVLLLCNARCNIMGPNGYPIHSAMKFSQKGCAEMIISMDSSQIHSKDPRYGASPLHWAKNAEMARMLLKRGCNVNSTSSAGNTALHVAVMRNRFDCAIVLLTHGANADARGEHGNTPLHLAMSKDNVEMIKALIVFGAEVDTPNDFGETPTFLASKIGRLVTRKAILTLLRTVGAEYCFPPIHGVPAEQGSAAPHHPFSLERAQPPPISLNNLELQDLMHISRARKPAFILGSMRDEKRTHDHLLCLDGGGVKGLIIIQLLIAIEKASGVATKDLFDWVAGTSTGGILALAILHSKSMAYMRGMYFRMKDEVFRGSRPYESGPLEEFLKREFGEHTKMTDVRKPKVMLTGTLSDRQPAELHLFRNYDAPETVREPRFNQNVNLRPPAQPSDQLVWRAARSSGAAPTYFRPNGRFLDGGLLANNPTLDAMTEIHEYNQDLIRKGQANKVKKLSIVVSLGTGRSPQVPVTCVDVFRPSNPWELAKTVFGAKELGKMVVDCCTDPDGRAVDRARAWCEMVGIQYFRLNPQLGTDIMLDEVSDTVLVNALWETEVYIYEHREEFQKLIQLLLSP
Procedure: Expi lysates expressing hPNPLA9 were treated with 100 μM Inhibitors and incubated with 1 mM C8 monoacylglycerol substrate (containing 5 mM CHAPS, 50 mM NaPh buffer ph7.4, 0.15 M NaCl) for 40 min. Glycerol release was determined via Free glycerol reagent (Sigma Aldrich). Samples measured in triplicates, […]

[5] = target: T1, human ATGL; experiment: Ki determination, human ATGL lysates with increasing substrate concentrations; type: biochemical; details: non-linear regression
Procedure: For determination of Ki values, lysates from Expi cells overexpressing human ATGL were incubated with recombinant purified ATGL co-activator CGI-58 and ATGL inhibitors at a single concentration dependent on the previously determined IC50. Increasing concentrations of substrate containing radiolabeled triolein were added and liberated FA were extracted and quantified by liquid scintillation. Inhibitors were dissolved in DMSO which was used as control. Ki was determined via non-linear regression analysis. Samples were measured in triplicates.

[6] = Stability in human serum; type: in vitro ADME; details: 37° C., HPLC MS
Procedure: Inhibitors were incubated in human serum for 0 or 3 h at 37° C. and subsequently extracted with the MTBE method and analyzed via HPLC MS. Samples measured in triplicates.

[7] = test system: differentiated hMADS adipocytes; experiment: Isoproterenol-stimulated lipolysis in differentiated hMADS adipocytes; type: cell-based; details: Homo sapiens, Adipocyte, 2 h pretreatment, 1 μM isoproterenol 1 h
Procedure: Human differentiated hMADS adipocytes were pretreated with DMSO or ATGL inhibitors for 2 h. Subsequently, lipolysis was stimulated with 1 μM Isoproterenol for 1 h and fatty acid release was determined from media via NEFA Reagent (Wako Diagnostics). Samples were measured in triplicates.
Human differentiated hMADS adipocytes were pretreated with DMSO or ATGL inhibitors for 2 h. Subsequently, lipolysis was stimulated with 1 μM Isoproterenol for 1 h and glycerol release was determined from media via Free glycerol reagent (Sigma Aldrich). Samples were measured in triplicates.

[8] = test system: HepG2 cells; experiment: Toxicity screening (LDH) in HepG2 cells; type: cell-based, human; details: 24 h treatment, LDH release
Procedure: HepG2 cells were seeded in 96 well plates and at 50% confluency treated with DMSO (0.5% final conc.) or ATGL Inhibitors for 24 h in DMEM+P/S+3% heat inactivated FCS (3 h at 62° C.). Subsequently, LDH activity of 50 μl medium was determined via the Roche LDH Kit. Samples measured in triplicates.

[9] = Example 237, read-out: Inhibition of human ATGL − IC50
[10] = 50 μM compound, Example 237, read-out: Inhibition of murine ATGL at 50 μM − mean [%]
[11] = fatty acid release, read-out: IC50 SGBS FA release
[12] = fatty acid release, read-out: IC50 hMADS FA release
[13] = glycerol release, read-out: IC50 hMADS glycerol release
[14] = 50 μM, overview table, read-out: mouse ATGL inhibition [% inhibition at 50 μM]
[15] = glycerol release, read-out: IC50 SGBS glycerol release

CCOc1ccc(-c2cccc(C(=O)OC(C)C)n2)cc1 [Example 6]
IC50 [1, 9]: 3000 nM | inhibition at 50 µM [2, 10]: 0% | IC50 [3, 11]: 2000 nM | inhibition at 100 µM [4]: 0%

CC(C)OC(=O)c1cccc(-c2ccc(C(F)(F)F)cc2)n1 [Example 41]
IC50 [1, 9]: 3000 nM | inhibition at 50 µM [2, 10]: 28.2% | Ki [5]: 2500 nM | Stability in human serum [% rest after 3 h incubation] [6]: 75% | melting point: 98 to 99 °C

CCCc1ccc(-c2cccc(C(=O)OC(C)C)n2)cc1 [Example 43]
IC50 [1, 9]: 2000 nM | inhibition at 50 µM [2, 10]: 9.8% | Ki [5]: 470 nM | IC50 [7, 12]: 3000 nM | Stability in human serum [% rest after 3 h incubation] [6]: 80% | melting point: 104 to 107 °C

CCCc1ccc(-c2cc(OC)cc(C(=O)OC(C)C)n2)cc1 [Example 53]
IC50 [1, 9]: 1500 nM | inhibition at 50 µM [2, 10]: 0% | Ki [5]: 550 nM | IC50 [7, 13]: 80000 nM | Stability in human serum [% rest after 3 h incubation] [6]: 80%

COCc1ccc(-c2cc(OC)cc(C(=O)OC(C)C)n2)cc1 [Example 61]
IC50 [1, 9]: 1000 nM | Ki [5]: 420 nM | IC50 [7, 12]: 2000 nM | Tox HepG2 (LDH) seen from [8]: 50 µM | Stability in human serum [% rest after 3 h incubation] [6]: 75%

CCCCCCc1ccc(-c2cccc(C(=O)OC(C)C)n2)cc1 [Example 68]
IC50 [1, 9]: 1500 nM | inhibition at 50 µM [2, 10]: 0% | Ki [5]: 270 nM | IC50 [7, 12]: 1000 nM | Stability in human serum [% rest after 3 h incubation] [6]: 80% | melting point: 34 to 35 °C

CCCCCCOc1ccc(-c2cccc(C(=O)OC(C)C)n2)cc1 [Example 69]
IC50 [1, 9]: 1000 nM | Ki [5]: 830 nM | IC50 [7, 13]: 80000 nM | Stability in human serum [% rest after 3 h incubation] [6]: 80% | melting point: 68 to 70 °C

CCCCCCCOc1ccc(-c2cccc(C(=O)OC(C)C)n2)cc1 [Example 86]
IC50 [1, 9]: 1500 nM | inhibition at 50 µM [2, 10]: 0% | Ki [5]: 470 nM | IC50 [7, 12]: 1000 nM | Stability in human serum [% rest after 3 h incubation] [6]: 80% | melting point: 64 to 66 °C

CCOC(=O)c1csc(-c2ccc(OCC)cc2)n1 [Example 101, Ethyl 2-(4-ethoxyphenyl)thiazole-4-carboxylate]
IC50 ([1]; values of text and figure legend, read-out: IC50 on human ATGL (hATGL)): 2500 nM | inhibition at 50 µM [2, 10]: 23.6% | inhibition at 50 µM [2, 14]: 30% | Ki [5]: 2500 nM | IC50 [3, 11]: 3000 nM | IC50 [3, 15]: 3000 nM | Stability in human serum [% rest after 3 h incubation] [6]: 25%

CCCOc1ccc(-c2nc(C(=O)OCC)cs2)cc1 [Example 105, Ethyl 2-(4-propoxyphenyl)thiazole-4-carboxylate]
IC50 [1, 9]: 3000 nM | inhibition at 50 µM [2, 10]: 12.2% | IC50 [3, 11]: 3000 nM | IC50 [3, 15]: 3000 nM

C=C(C)COC(=O)c1csc(-c2ccc(OCC)cc2)n1 [Example 120, 2-Methylallyl 2-(4-ethoxyphenyl)thiazole-4-carboxylate]
IC50 [1, 9]: 4000 nM | inhibition at 50 µM [2, 10]: 40.5% | inhibition at 50 µM [2, 14]: 40% | Ki [5]: 1200 nM | Stability in human serum [% rest after 3 h incubation] [6]: 5%

C=CC(C)OC(=O)c1csc(-c2ccc(OCC)cc2)n1 (stereo not drawn) [Example 148, But-3-en-2-yl 2-(4-ethoxyphenyl)thiazole-4-carboxylate]
IC50 [1, 9]: 2000 nM | inhibition at 50 µM [2, 14]: 30% | IC50 [3, 11]: 2000 nM | IC50 [3, 15]: 3000 nM

C#CC(C)OC(=O)c1csc(-c2ccc(OCC)cc2)n1 (stereo not drawn) [Example 157, But-3-yn-2-yl 2-(4-ethoxyphenyl)thiazole-4-carboxylate]
IC50 [1, 9]: 900 nM | Ki [5]: 210 nM | IC50 [7, 12]: 2500 nM | IC50 [7, 13]: 5000 nM
